Test results reported in publication PMC6719172, “Inhibition of CpLIP2 Lipase Hydrolytic Activity by Four Flavonols (Galangin, Kaempferol, Quercetin, Myricetin) Compared to Orlistat and Their Binding Mechanisms Studied by Quenching of Fluorescence” (Molecules, 2019).

What was measured:
[1] = target: T1, CpLIP2 lipase (Candida parapsilosis, UniProt Q8NIN8); test: Quenching of CpLIP2 intrinsic tryptophan fluorescence by flavonols (Stern–Volmer, Lehrer, van't Hoff analysis); format: binding; settings: for KSV (Stern–Volmer quenching constant): CpLIP2 2.5 µM, pH 7.0, flavonol 2.5–25 µM (GAL 2.5–17.5 µM); for Kq (bimolecular quenching constant): Kq = KSV/τ0, τ0 1.59 ns; for KSV (accessible), Stern–Volmer quenching constant of the exposed W residues / fa (fraction of accessible W residues to the quencher): Lehrer equation; for ΔG (free energy change): ΔG = ΔH − TΔS; for Kd: Kd (dissociation constant); for order of magnitude of Kq: all temperatures of Table 1; for ΔS (entropy changes): van't Hoff plot, 298–328 K
T1 sequence (Q8NIN8 entry or part of it): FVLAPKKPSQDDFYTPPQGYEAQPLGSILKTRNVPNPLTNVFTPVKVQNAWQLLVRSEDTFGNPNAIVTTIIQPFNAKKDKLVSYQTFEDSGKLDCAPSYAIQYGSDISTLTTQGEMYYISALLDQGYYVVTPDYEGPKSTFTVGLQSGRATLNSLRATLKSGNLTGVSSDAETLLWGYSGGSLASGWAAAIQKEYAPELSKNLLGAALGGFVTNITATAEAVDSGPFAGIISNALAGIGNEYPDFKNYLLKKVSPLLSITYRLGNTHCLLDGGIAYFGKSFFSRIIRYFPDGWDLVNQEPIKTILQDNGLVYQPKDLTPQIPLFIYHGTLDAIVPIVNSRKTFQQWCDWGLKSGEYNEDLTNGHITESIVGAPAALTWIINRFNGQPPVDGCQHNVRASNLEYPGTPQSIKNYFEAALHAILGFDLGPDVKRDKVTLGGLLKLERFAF
From the text: The fluorescence quenching spectra of CpLIP2 lipase submitted to increasing concentrations of GAL, KAE, QUE and MYR are shown in Figure 3. A remarkable quenching of the CpLIP2 fluorescence emission was observed. […] The fluorescence quenching is usually described by the linear Stern–Volmer Equations (2) and (3):(2) F0/F = 1 + Ksv [Q] = 1 + Kqτ0 [Q] (3) Kq=Ksv/τ0 where F0 and F are the intrinsic fluorescence intensities of CpLIP2 lipase (fluorophore) in absence or presence of quencher (flavonol), respectively. Kq is the bimolecular quenching constant, τ0 is the lifetime of the fluorophore in the absence of the quencher, [Q] is the concentration of the quencher, and KSV is the Stern–Volmer quenching constant.
The mechanism of quenching, occurring between CpLIP2 lipase and flavonols, was characterized by determining the values of Kq and the thermodynamic parameters by varying the temperature. […] In both cases, the bimolecular quenching constant Kq can be calculated by the ratio between KSV and τ0, itself determined at 1.59 ns for Human Pancreatic Lipase.
The inaccessible or buried residues are responsible for the remaining fluorescence, which is probably independent of the quencher concentration. […] An up-down curvature towards the x-axis has been shown for the four flavonols (Figure 4), indicating the presence of two populations of fluorophores, part of which would not be accessible. That means that some W residues are buried inside the lipase structure and that other residues are exposed to the solvent. Therefore, data were analyzed through the Lehrer equation, also known as the modified (or non-linear) Stern–Volmer Equation (4):(4) F0/ F0−F = 1/ fa Ksv 1/ [Q] +1/ fa
For static quenching, the equilibrium between free and bound CpLIP2 lipase, when the ligand molecules bind independently to equivalent sites of macromolecules, can be described by the following Equation (5):(5) log10F0−F/F=nlog10[Q]+log10Ka where Ka is the binding constant and n the number of binding sites per CpLIP2 molecule.
The results were determined for all flavonols tested at different temperatures from the plots of log10 F0 − F/F versus log10 [Q] and listed in Table 2. The plots show a linear relationship from which the slope equal to n and intercept on y-axis equal to log10 Ka. For the four flavonols, the Ka values increased when the temperatures increased. In addition, the n values were less than 1.0 in all cases and increased according to the temperature. […] Values of the dissociation constant of complexes were deduced from the Stern–Volmer Equation (6) and (7), for which Kd is expressed as the inverse of fa Ksv product. (6) F0/ F0−F= Kd 1/ [Q] +1 (7) Kd= 1/fa Ksv
Thermodynamic parameters were calculated to determine the type of binding forces that contribute in the CpLIP2 lipase–flavonol interactions. […] Both the enthalpy (ΔH) and entropy changes (ΔS) can be estimated from the following van′t Hoff Equation (8):(8) Ln Ka = − ΔH /RT + ΔS /R
The values of Gibbs binding free energy change (ΔG) are calculated from the following Equation (9):(9) ΔG= ΔH − TΔS
To fill up the volume of 300 µL by well, 190 µL of sodium phosphate buffer solution (75 mM, pH 7.0) was added to each well to obtain final concentration at 50 mM. Then, 100 µL of ethanol absolute–water ultrapure (2:8, v/v) solution was added to obtain a final amount of ethanol […] in the well of 300 µL. […] The final concentration of ethanol during the experiments never exceeded 0.07% (v/v). The last step was to add 10 µL of lipase after to have optimized the final concentration of CpLIP2 equal to 2.5 µM for all our assays, giving the optimal fluorescence intensity for all measurements. The measurement of intrinsic fluorescence started after mechanical shaking for 30 s inside the multi-plate reader. […]

[2] = target: T1, CpLIP2 lipase; test: Fluorescence resonance energy transfer between CpLIP2 and flavonols (Förster theory); format: binding; settings: for E (energy transfer efficiency) / J (overlap integral) / R0 (Förster distance) / r (distance between acceptor and donor) / r/R0: 2.5 µM, 308 K, pH 7.0; as to R0 (Förster distance): values in Å; as to r (distance between acceptor and donor): values in Å
From the text: Fluorescence emission spectra of CpLIP2 lipase overlap the UV absorption spectrum of each flavonol studied, that may induce fluorescence resonance energy transfer (FRET) governed by the binding distance r between the protein behaving as energy donor and the flavonol energy acceptor. The binding distance r can be calculated via Förster theory with the following Equations (10) and (11):(10) E=1−F/ F0=R06/ R06+r^6 where E is the energy transfer efficiency, which is the photons fraction absorbed and transferred by the donor to the acceptor, F and F0 are the fluorescence intensities of donor (CpLIP2) in the presence or absence of acceptor (flavonol) at the same concentrations. The parameter r is the distance between acceptor and donor, and R0 is the Förster distance, which is the critical energy transfer distance when 50% of the excitation energy is transferred from the donor to the acceptor. […] The value of R0 ranges from 20–90 Å for biological macromolecules.

[3] = cited from earlier work

Compound: O=c1c(O)c(-c2cc(O)c(O)c(O)c2)oc2cc(O)cc(O)c12 [MYR, myricetin]
- Ka (association constant) ([1]; 298 K): 45.21 ± 1 L/mol
- n (number of binding sites) ([1]; 298 K): 0.43 ± 0.02
- KSV (Stern–Volmer quenching constant) ([1]; 298 K): 1.6 ± 0.1 × 10^4 L·mol^−1
- Kq (bimolecular quenching constant) ([1]; 298 K): 1e+13 M⁻¹ s⁻¹
- KSV (accessible), Stern–Volmer quenching constant of the exposed W residues ([1]; 298 K): 290000 L/mol
- fa (fraction of accessible W residues to the quencher) ([1]; 298 K): 0.34
- ΔG (free energy change) ([1]; 298 K): -6.26 kcal/mol
- Ka (association constant) ([1]; 308 K): 53.09 ± 2 L/mol
- n (number of binding sites) ([1]; 308 K): 0.46 ± 0.03
- KSV (Stern–Volmer quenching constant) ([1]; 308 K): 1.3 ± 0.5 × 10^4 L·mol^−1
- Kq (bimolecular quenching constant) ([1]; 308 K): 8.2e+12 M⁻¹ s⁻¹
- KSV (accessible), Stern–Volmer quenching constant of the exposed W residues ([1]; 308 K): 280000 L/mol
- fa (fraction of accessible W residues to the quencher) ([1]; 308 K): 0.32
- ΔG (free energy change) ([1]; 308 K): -6.45 kcal/mol
- Ka (association constant) ([1]; 318 K): 44.79 ± 1 L/mol
- n (number of binding sites) ([1]; 318 K): 0.44 ± 0.02
- KSV (Stern–Volmer quenching constant) ([1]; 318 K): 1.2 ± 0.4 × 10^4 L·mol^−1
- Kq (bimolecular quenching constant) ([1]; 318 K): 7.7e+12 M⁻¹ s⁻¹
- KSV (accessible), Stern–Volmer quenching constant of the exposed W residues ([1]; 318 K): 320000 L/mol
- fa (fraction of accessible W residues to the quencher) ([1]; 318 K): 0.30
- ΔG (free energy change) ([1]; 318 K): -6.67 kcal/mol
- Ka (association constant) ([1]; 328 K): 97.14 ± 2 L/mol
- n (number of binding sites) ([1]; 328 K): 0.51 ± 0.09
- KSV (Stern–Volmer quenching constant) ([1]; 328 K): 1.4 ± 0.5 × 10^4 L·mol^−1
- Kq (bimolecular quenching constant) ([1]; 328 K): 9e+12 M⁻¹ s⁻¹
- KSV (accessible), Stern–Volmer quenching constant of the exposed W residues ([1]; 328 K): 250000 L/mol
- fa (fraction of accessible W residues to the quencher) ([1]; 328 K): 0.33
- ΔG (free energy change) ([1]; 328 K): -6.88 kcal/mol
- Kd ([1]; 298 K): 10 ± 1 µM
- Kd ([1]; 308 K): 11 ± 4 µM
- Kd ([1]; 318 K): 10 ± 4 µM
- Kd ([1]; 328 K): 12 ± 7 µM
- fa (fraction of accessible W residues) ([1]; across temperatures): 0.33
- n (number of binding sites) ([1]; across temperatures): 0.43
- order of magnitude of Kq [1]: ~10^13 L mol^−1 s^−1
- ΔS (entropy changes) [1]: 0.10 kJ·mol^−1·K^−1
- percentage of transfer efficiency [2]: 23%
- E (energy transfer efficiency) [2]: 0.23
- J (overlap integral) [2]: 15 × 10^14 nm^4·cm^−1·M^−1
- R0 (Förster distance) [2]: 38.4 Å
- r (distance between acceptor and donor) [2]: 46.7 Å
- r/R0 [2]: 1.2
- log10 P of partition between octanol and water phases [3]: 2.1

Compound: O=c1c(O)c(-c2ccc(O)c(O)c2)oc2cc(O)cc(O)c12 [QUE, quercetin]
- Ka (association constant) ([1]; 298 K): 2034 ± 2 L/mol
- n (number of binding sites) ([1]; 298 K): 0.78 ± 0.06
- KSV (Stern–Volmer quenching constant) ([1]; 298 K): 1.8 ± 0.1 × 10^4 L·mol^−1
- Kq (bimolecular quenching constant) ([1]; 298 K): 1.1e+13 M⁻¹ s⁻¹
- KSV (accessible), Stern–Volmer quenching constant of the exposed W residues ([1]; 298 K): 70000 L/mol
- fa (fraction of accessible W residues to the quencher) ([1]; 298 K): 0.54
- ΔG (free energy change) ([1]; 298 K): -10.1 kcal/mol
- Ka (association constant) ([1]; 308 K): 1824 ± 9 L/mol
- n (number of binding sites) ([1]; 308 K): 0.77 ± 0.05
- KSV (Stern–Volmer quenching constant) ([1]; 308 K): 1.6 ± 0.6 × 10^4 L·mol^−1
- Kq (bimolecular quenching constant) ([1]; 308 K): 1e+13 M⁻¹ s⁻¹
- KSV (accessible), Stern–Volmer quenching constant of the exposed W residues ([1]; 308 K): 80000 L/mol
- fa (fraction of accessible W residues to the quencher) ([1]; 308 K): 0.52
- ΔG (free energy change) ([1]; 308 K): -10.4 kcal/mol
- Ka (association constant) ([1]; 318 K): 3041 ± 2 L/mol
- n (number of binding sites) ([1]; 318 K): 0.81 ± 0.07
- KSV (Stern–Volmer quenching constant) ([1]; 318 K): 1.6 ± 0.6 × 10^4 L·mol^−1
- Kq (bimolecular quenching constant) ([1]; 318 K): 1e+13 M⁻¹ s⁻¹
- KSV (accessible), Stern–Volmer quenching constant of the exposed W residues ([1]; 318 K): 70000 L/mol
- fa (fraction of accessible W residues to the quencher) ([1]; 318 K): 0.55
- ΔG (free energy change) ([1]; 318 K): -10.8 kcal/mol
- Ka (association constant) ([1]; 328 K): 4616 ± 3 L/mol
- n (number of binding sites) ([1]; 328 K): 0.85 ± 0.11
- KSV (Stern–Volmer quenching constant) ([1]; 328 K): 2.0 ± 0.7 × 10^4 L·mol^−1
- Kq (bimolecular quenching constant) ([1]; 328 K): 1.3e+13 M⁻¹ s⁻¹
- KSV (accessible), Stern–Volmer quenching constant of the exposed W residues ([1]; 328 K): 50000 L/mol
- fa (fraction of accessible W residues to the quencher) ([1]; 328 K): 0.69
- ΔG (free energy change) ([1]; 328 K): -11.1 kcal/mol
- Kd ([1]; 298 K): 27 ± 6 µM
- Kd ([1]; 308 K): 24 ± 10 µM
- Kd ([1]; 318 K): 25 ± 10 µM
- Kd ([1]; 328 K): 31 ± 13 µM
- fa (fraction of accessible W residues) ([1]; across temperatures): 0.55
- order of magnitude of Kq [1]: ~10^13 L mol^−1 s^−1
- ΔS (entropy changes) [1]: 0.14 kJ·mol^−1·K^−1
- percentage of transfer efficiency [2]: 6%
- E (energy transfer efficiency) [2]: 0.06
- J (overlap integral) [2]: 12 × 10^14 nm^4·cm^−1·M^−1
- R0 (Förster distance) [2]: 36.9 Å
- r (distance between acceptor and donor) [2]: 58.7 Å
- r/R0 [2]: 1.6
- log10 P of partition between octanol and water phases [3]: 2.9
